Patent US20200138827A1, “SMALL MOLECULE MODULATORS OF HUMAN STING” (Curadev Pharma Limited, priority 2017, published 2020)

Molecular target: T1, WT/R232 STING protein (Homo sapiens, UniProt Q86WV6, H232R)
T1 construct: host or cells: HEK293T
Test: Luciferase reporter assay in HEK293T-hSTING-Luciferase cells, WT/R232
Type: cell-based
Settings: 20 hr stimulation, read-out: R232 Activity (EC50 range)
Procedure, shortened: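 Clonal HEK293T cells stably expressing human STING R232 plus an ISRE/ISG54-driven luciferase reporter, 5×10^5 per well, stimulated with compounds for 20 h. Secreted luciferase in supernatant measured by luminescence; […].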

T1 sequence (Q86WV6 whole entry H232R): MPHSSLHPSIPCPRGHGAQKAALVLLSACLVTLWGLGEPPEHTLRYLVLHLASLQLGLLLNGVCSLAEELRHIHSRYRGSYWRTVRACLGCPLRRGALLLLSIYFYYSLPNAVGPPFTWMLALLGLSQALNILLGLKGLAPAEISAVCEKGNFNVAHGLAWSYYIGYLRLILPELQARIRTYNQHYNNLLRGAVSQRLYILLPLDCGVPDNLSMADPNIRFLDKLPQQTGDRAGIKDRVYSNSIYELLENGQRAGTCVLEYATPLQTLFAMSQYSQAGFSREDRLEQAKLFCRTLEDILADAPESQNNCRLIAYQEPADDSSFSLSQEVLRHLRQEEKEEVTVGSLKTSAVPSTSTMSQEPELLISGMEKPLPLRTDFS

| Compound | EC50 [µM] |
| --- | --- |
| O=C(NCc1ccc2ccccc2c1)c1ccc2c(c1)N(Cc1c(F)cccc1Cl)C(=O)CS2 [Example 32, 4-(2-chloro-6-fluorobenzyl)-N-(naphthalen-2-ylmethyl)-3-oxo-3,4-dihydro-2H-benzo[b-1,4]thiazine 6-carboxamide] | 1 to 10 |
| Cn1cccc1CNC(=O)c1ccc2c(c1)N(Cc1ccccc1)C(=O)CS2 [Example 10, 4-benzyl-N-((1-methyl-1H-pyrrol-2-yl)methyl)-3-oxo-3,4-dihydro-2H-benzo[b-1,4]thiazine-6-carboxamide] | > 10 |
| O=C(NCc1ccc(F)cc1F)c1cnc2c(c1)N(Cc1ccc(F)cc1)C(=O)CC2 [Example 280, N-(2,4-difluorobenzyl)-5-(4-fluorobenzyl)-6-oxo-5,6,7,8-tetrahydro-1,5-naphthyridine-3-carboxamide] | > 10 |
| O=C(NCc1ccco1)c1ccc2c(c1)N(Cc1cccc(Cl)c1Cl)C(=O)CS2 [Example 11, 4-(2,3-dichloro-benzyl)-N-(furan-2-ylmethyl)-3-oxo-3,4-dihydro-2H-benzo[b-1,4]thiazine-6-carboxamide] | 1 to 10 |
| O=C(NCc1cccc(-c2ccccc2)c1)c1ccc2c(c1)N(Cc1c(F)cccc1Cl)C(=O)CS2 [Example 47, N-([1,1′-biphenyl]-3-ylmethyl)-4-(2-chloro-6-fluorobenzyl)-3-oxo-3,4-dihydro-2H-benzo[b][1,4] thiazine-6-carboxamide] | > 10 |
| O=C(NCc1ccco1)c1ccc2c(c1)N(Cc1ccccc1Cl)C(=O)CS2 [Example 1, 4-(2-chlorobenzyl)-N-(furan-2-ylmethyl)-3-oxo-3,4-dihydro-2H-benzo[b-1,4]thiazine-6-carboxamide] | > 10 |
| Cc1ccc(CNC(=O)c2ccc3c(n2)N(C(C)c2cc(F)cc(F)c2)C(=O)C(C)S3)o1 (centres unmarked) [Example 204, 4-(1-(3,5-difluorophenyl)ethyl)-2-methyl-N-((5-methylfuran-2-yl)methyl)-3-oxo-3,4-dihydro-2H-pyrido[3,2-b] [1,4] thiazine-6-carboxamide] | 1 to 10 |
| O=C(NCc1ccco1)c1ccc2c(c1)N(Cc1ccccc1)CC[S+]2[O-] (centres unmarked) [Example 251, 4-Benzyl-N-(furan-2-ylmethyl)-3,4-dihydro-2H-benzo[b-1,4]thiazine-6-carboxamide 1-oxide] | > 10 |
| CC1Sc2ccc(C(=O)NCc3cnn(C)c3)cc2N(Cc2cc(F)cc(F)c2)C1=O (centres unmarked) [Example 169, 4-(3,5-difluorobenzyl)-2-methyl-N-((1-methyl-1H-pyrazol-4-yl)methyl)-3-oxo-3,4-dihydro-2H-benzo[b][1,4] thiazine-6-carboxamide] | > 10 |
| O=C(NCC1CCCC1)c1ccc2c(c1)N(Cc1c(F)cccc1Cl)C(=O)CS2 [Example 35, 4-(2-chloro-6-fluorobenzyl)-N-(cyclopentyl-methyl)-3-oxo-3,4-dihydro-2H-benzo[b][1,4] thiazine-6-carboxamide] | > 10 |
| O=C(NCc1n[nH]c(=O)c2ccccc12)c1ccc2c(c1)N(Cc1ccccc1)C(=O)CS2 [Example 51, 4-benzyl-3-oxo-N-((4-oxo-3,4-dihydrophthalazin-1-yl)methyl)-3,4-dihydro-2H-benzo[b-1,4]thiazine-6-carboxamide] | > 10 |
| O=C(NCc1ccco1)c1ccc2c(c1)N(Cc1c(F)cccc1Cl)C(=O)CC2 [Example 268, 1-(2-chloro-6-fluorobenzyl)-N-(furan-2-ylmethyl)-2-oxo-1,2,3,4-tetrahydroquinoline-7-carboxamide] | > 10 |
| O=C(NCc1ccco1)c1ccc2c(c1)N(Cc1ccc(Cl)cc1)CCS2 [Example 250, 4-(4-Chlorobenzyl)-N-(furan-2-ylmethyl)-3,4-dihydro-2H-benzo[b-1,4]thiazine-6-carboxamide] | > 10 |
| O=C(NCc1ccco1)c1ccc2c(c1)N(CCS(=O)(=O)c1ccccc1)C(=O)CS2 [Example 103, N-(furan-2-ylmethyl)-3-oxo-4-(2-(phenylsulfonyl)ethyl)-3,4-dihydro-2H-benzo[b-1,4]thiazine-6-carboxamide] | > 10 |
| O=C(CN1C(=O)CSc2ccc(C(=O)NCc3ccco3)cc21)c1ccccc1 [Example 2, N-(furan-2-ylmethyl)-3-oxo-4-(2-oxo-2-phenylethyl)-3,4-dihydro-2H-benzo[b][1,4] thiazine-6-carboxamide] | > 10 |
| Cc1cccc(CNC(=O)c2ccc3c(n2)N(Cc2c(F)cccc2Cl)C(=O)C(C)S3)c1 (centres unmarked) [Example 184, 4-(2-chloro-6-fluorobenzyl)-2-methyl-N-(3-methylbenzyl)-3-oxo-3,4-dihydro-2H-pyrido[3,2-b-1,4]thiazine-6-carboxamide] | > 10 |
| O=C(NCc1ccc(F)cc1F)c1cnc2c(c1)N(Cc1cc(F)cc(F)c1)C(=O)CC2 [Example 277, N-(2,4-difluorobenzyl)-5-(3,5-difluorobenzyl)-6-oxo-5,6,7,8-tetrahydro-1,5-naphthyridine-3-carboxamide] | 1 to 10 |
| O=C(NCc1c(F)cccc1Cl)c1ccc2c(c1)N(Cc1c(F)cccc1Cl)C(=O)CS2 [Example 21, N,4-bis(2-chloro-6-fluorobenzyl)-3-oxo-3,4-dihydro-2H-benzo[b-1,4]thiazine-carboxamide] | 1 to 10 |

| Compound | EC50 [µM] |
| --- | --- |
| O=C(NCc1ccco1)c1ccc2c(c1)N(Cc1cccc(OC(F)(F)F)c1)C(=O)CS2 [Example 88, N-(furan-2-ylmethyl)-3-oxo-4-(3-(trifluoromethoxy)benzyl)-3,4-dihydro-2H-benzo[b-1,4]thiazine-6-carboxamide] | > 10 |
| O=C(NCc1ccco1)c1ccc2c(c1)N(Cc1ccccc1OC(F)(F)F)C(=O)CS2 [Example 91, N-(furan-2-ylmethyl)-3-oxo-4-(2-(trifluoromethoxy)benzyl)-3,4-dihydro-2H-benzo[b-1,4]thiazine-6-carboxamide] | > 10 |
| O=C(NCc1ccco1)c1ccc2c(c1)N(Cc1cn3ccsc3n1)C(=O)CS2 [Example 104, N-(furan-2-ylmethyl)-4-(imidazo[2,1-b]thiazol-6-ylmethyl)-3-oxo-3,4-dihydro-2H-benzo[b-1,4]thiazine-6-carboxamide] | > 10 |
| Cc1nnc(CN2C(=O)CSc3ccc(C(=O)NCc4ccco4)cc32)n1C [Example 105, 4-((4,5-dimethyl-4H-1,2,4-triazol-3-yl)methyl)-N-(furan-2-ylmethyl)-3-oxo-3,4-dihydro-2H-benzo[b-1,4]thiazine-6-carboxamide] | > 10 |
| O=C(NCc1ccco1)c1ccc2c(c1)N(Cc1ccccc1)CCS2(=O)=O [Example 252, 4-Benzyl-N-(furan-2-ylmethyl)-3,4-dihydro-2H-benzo[b-1,4]thiazine-6-carboxamide 1,1-dioxide] | > 10 |
| O=C(NCC12C[C@H]3C[C@@H](C1)C[C@@H](C2)C3)c1ccc2c(c1)N(Cc1ccccc1F)C(=O)CS2 [Example 24, N-((3r,5r,7r)-adamantan-1-ylmethyl)-4-(2-fluorobenzyl)-3-oxo-3,4-dihydro-2H-benzo[b-1,4]thiazine-6-carboxamide] | > 10 |
| Cc1ccc(CNC(=O)c2cnc3c(c2)N(Cc2c(F)cccc2Cl)C(=O)CS3)o1 [Example 207, 1-(2-chloro-6-fluorobenzyl)-N-((5-methylfuran-2-yl)methyl)-2-oxo-2,3-dihydro-1H-pyrido [2,3-b][1,4] thiazine-7-carboxamide] | 1 to 10 |
| Cc1noc(CNC(=O)c2ccc3c(c2)N(Cc2cc(F)cc(F)c2)C(=O)C(C)S3)n1 (centres unmarked) [Example 167, 4-(3,5-difluorobenzyl)-2-methyl-N-((3-methyl-1,2,4-oxadiazol-5-yl)methyl)-3-oxo-3,4-dihydro-2H-benzo[b][1,4] thiazine-6-carboxamide] | 1 to 10 |
| O=C(NCc1ccco1)c1ccc2c(c1)N(C(=O)c1c(F)cccc1Cl)CCS2 [Example 256, 4-(2-chloro-6-fluorobenzoyl)-N-(furan-2-ylmethyl)-3,4-dihydro-2H-benzo[b][1,4]thiazine-6-carboxamide] | > 10 |
| CC1Sc2ccc(C(=O)NCc3c(F)cc(F)cc3F)nc2N(Cc2c(F)cccc2Cl)C1=O (centres unmarked) [Example 186, 4-(2-chloro-6-fluorobenzyl)-2-methyl-3-oxo-N-(2,4,6-trifluorobenzyl)-3,4-dihydro-2H-pyrido[3,2-b-1,4]thiazine-6-carboxamide] | 1 to 10 |
| CC(c1ccccc1)N1C(=O)CSc2ccc(C(=O)NCc3ccco3)cc21 (centres unmarked) [Example 29, N-(furan-2-ylmethyl)-3-oxo-4-(1-phenylethyl)-3,4-dihydro-2H-benzo[b-1,4]thiazine-6-carboxamide] | > 10 |
| CC(O)c1cc(C(=O)NCc2c(F)cc(F)cc2F)cc2c1SCC(=O)N2Cc1ccc(F)cc1 (centres unmarked) [Example 223, 4-(4-fluorobenzyl)-8-(1-hydroxyethyl)-3-oxo-N-(2,4,6-trifluorobenzyl)-3,4-dihydro-2H-benzo[b][1,4] thiazine-6-carboxamide] | > 10 |
| O=C(NCc1ccco1)c1ccc2c(c1)N(Cc1cc(F)ccc1F)C(=O)CS2 [Example 100, 4-(2,5-difluorobenzyl)-N-(furan-2-ylmethyl)-3-oxo-3,4-dihydro-2H-benzo[b-1,4]thiazine-6-carboxamide] | 1 to 10 |
| Cc1cccc(CNC(=O)c2ccc3c(c2)N(Cc2ccccc2)C(=O)CS3)c1 [Example 76, 4-benzyl-N-(3-methylbenzyl)-3-oxo-3,4-dihydro-2H-benzo[b-1,4]thiazine-6-carboxamide] | > 10 |
| O=C(NCc1ccco1)c1ccc2c(c1)N(Cc1ccccc1)C(=O)CS2 [Example 111, 4-benzyl-N-(furan-2-ylmethyl)-3-oxo-3,4-dihydro-2H-benzo[b-1,4]thiazine-6-carboxamide] | > 10 |
| O=C(NCC1CCCN(Cc2ccccc2)C1)c1ccc2c(c1)N(Cc1ccccc1F)C(=O)CS2 (centres unmarked) [Example 44, N-((1-benzylpiperidin-3-yl)methyl)-4-(2-fluorobenzyl)-3-oxo-3,4-dihydro-2H-benzo[b][1,4] thiazine-6-carboxamide] | > 10 |
| C[C@H](NC(=O)c1ccc2c(c1)N(Cc1ccccc1F)C(=O)CS2)C1CCCCC1 [Example 18, (S)-N-(1-cyclohexyl-ethyl)-4-(2-fluorobenzyl)-3-oxo-3,4-dihydro-2H-benzo[b-1,4]thiazine-6-carboxamide] | > 10 |
